Measured values taken from US4428806A, “Process for producing brominated 1,3-dioxolen-2-ones” (priority 1981, dated 1984).
Where a name gives a salt, the structure may show the parent alone. Read-outs that look alike come from different tables or passages of the source. Values belong to the molecule of their own block, whether it stands above or below them.

Tests used:
[1] = Conversion to ampicillin in 40% mouse blood (incubation and bioautography); assay type: in vitro ADME
Method: The resulting ampicillin ester hydrochloride was incubated at 37° C. for 10 minutes in 40% mouse blood, and then bioautographed.
The resulting ampicillin (5-phenyl-2-oxo-1,3-dioxolen-4-yl)methyl ester hydrochloride was incubated at 37° C. for […] in 40% mouse blood, and then bioautographed.
The product was incubated and bioautographed in the same way as in Referential Example 1.

[2] = in vitro; assay type: in vitro ADME; conditions: pH 1.2
Method: (§1) 1. Test compounds: A and B above
Each of the test compounds was dissolved in an acidic medium (pH 1.2) consisting of 2.0 g of sodium chloride, 24 ml of 10% hydrochloric acid, 3.2 g of pepsin and 1000 ml of water. The solution was shaken at 37° C., and sampled periodically. The sample was subjected to high-performance liquid chromatography using a reversed phase partition column, and the degree of hydrolysis of each of the test compounds was determined from a decrease in its peak height.

[3] = in vitro; assay type: in vitro ADME; conditions: pH 7.5
Method: as §1
Each of the test compounds was dissolved in a basic medium (pH 7.5) consisting of 35.8 g of disodium phosphate, 6.0 ml of 10% hydrochloric acid and 2.8 g of pancreatin and 1000 ml of water, and the degree of hydrolysis of each test compound was determined as in the case of the acidic medium.

[4] = Blood level in oral administration (ampicillin concentration in serum, bioassay); assay type: in vivo, mice (ddY-strain); conditions: mice; for Ratio of the concentration of ampicillin in the serum: 50 mg/kg as ampicillin, ratio to ampicillin trihydrate (C = 1.0)
Method: Each of the test compounds (as an aqueous solution having a concentration of 5 mg/ml as ampicillin) was orally administered in a dose of 50 mg/kg as ampicillin to four week old mice (ddY-strain, body weight about 20 g, five per group) which were caused to fast overnight. The blood was taken from the mice periodically, and the concentration of ampicillin in the serum was measured by a bioassay method. The blood Ampicillin level ratio was calculated from the following equation. [formula]

SMILES: Cc1oc(=O)oc1COC(=O)[C@@H]1N2C(=O)[C@@H](NC(=O)[C@H](N)c3ccccc3)[C@H]2SC1(C)C [A, Ampicillin (5-methyl-2-oxo-1,3-dioxolen-4-yl) methyl ester hydrochloride]
Conversion to ampicillin in mouse blood ([1]; 40% mouse blood, 37° C., 10 minutes): completely changed to ampicillin | metabolised at 1 h ([2]; acidic medium with pepsin): 7% | metabolised at 4 h ([2]; acidic medium with pepsin): 20% | Stability in the acidic medium (in words) [2]: much more stable than the known control compound (B) | metabolised at 1 h ([3]; basic medium with pancreatin): 80% | Stability in the basic medium (in words) [3]: much more stable than the known control compound (B) | Absorption, conversion to ampicillin and blood level (in words) ([4]; compared with C and B): easily absorbed and converted back to the original ampicillin in vivo, and shows a high blood level over a longer period of time than ampicillin (C) and the known ampicillin ester (B)

SMILES: CC1(C)S[C@@H]2[C@H](NC(=O)[C@H](N)c3ccccc3)C(=O)N2[C@H]1C(=O)O [C, Ampicillin trihydrate]
Ratio of the concentration of ampicillin in the serum ([4]; 15 min): 1.0 | Ratio of the concentration of ampicillin in the serum ([4]; 30 min): 1.0 | Ratio of the concentration of ampicillin in the serum ([4]; 60 min): 1.0 | Ratio of the concentration of ampicillin in the serum ([4]; 90 min): 1.0 | Ratio of the concentration of ampicillin in the serum ([4]; 120 min): 1.0 | Ratio of the concentration of ampicillin in the serum ([4]; 180 min): 1.0

SMILES: CC1(C)S[C@@H]2[C@H](NC(=O)[C@H](N)c3ccccc3)C(=O)N2[C@H]1C(=O)OC1CCCc2oc(=O)oc21 (stereo partly drawn) [Referential Example 1, ampicillin (2,3-carbonyldioxy-2-cyclohexenyl) ester hydrochloride]
Conversion to ampicillin in mouse blood [1]: changed completely to ampicillin

The next lines start with the values.

metabolised at 20 h ([2]; acidic medium with pepsin): 100% | metabolised at 20 min ([3]; basic medium with pancreatin): 90% | metabolised at 1 h ([3]; basic medium with pancreatin): 100%
SMILES: CC1(C)S[C@@H]2[C@H](NC(=O)[C@H](N)c3ccccc3)C(=O)N2[C@H]1C(=O)OC1OC(=O)c2ccccc21 (stereo partly drawn) [B, Ampicillin phthalidyl ester hydrochloride]

Conversion to ampicillin in mouse blood [1]: completely changed to ampicillin
SMILES: CC1(C)S[C@@H]2[C@H](NC(=O)[C@H](N)c3ccccc3)C(=O)N2[C@H]1C(=O)OCc1oc(=O)oc1-c1ccccc1 [Referential Example 2, ampicillin (5-phenyl-2-oxo-1,3-dioxolen-4-yl)methyl ester hydrochloride]
